Key:
[1] = tested on: DBP (rat serum diluted with a barbital acetate buffer); test: Binding ability to vitamin D-bound protein (DBP), competitive protein binding assay (CPBA), competition with 3H-25(OH)D3; conditions: relative value of B/B0 50% value, 1,25(OH)2D3 taken to be 100; 4°C for 1 hour
Protocol: The binding ability to DBP was evaluated using the following competitive protein binding assay (CPBA). 1,25(OH)2D3 and each specimen were diluted to concentrations from 10^-11 M to 10^-5 M. 50 µL of a [26,27-^3H]-25-hydroxyvitamin D3 (^3H-25(OH)D3) solution and 100 µL of 1,25(OH)2D3 or each specimen solution were placed in a small test tube, and 1 mL of a DBP (rat serum diluted with a barbital acetate buffer) solution was added and mixed, and then allowed to stand at 4°C for 1 hour. Then, after 0.5 mL of a dextran-active carbon suspension was added and mixed, the mixture was allowed to stand on ice for 10 minutes, ^3H-25(OH)D3 unbound to DBP was removed by centrifugation at 3000 rpm for 15 minutes, and then the quantity of ^3H-25(OH)D3 bound to DBP was measured using 1 mL of the supernatant.
The binding ability to DBP of each specimen was evaluated by calculating and comparing the B/B0 50% value.

[2] = tested on: VDR (chicken small intestine receptor); test: Binding ability to vitamin D receptor (VDR), radio receptor assay (RRA), competition with 3H-1,25(OH)2D3; conditions: relative value of B/B0 50% value, 1,25(OH)2D3 taken to be 100; 4°C for 3 hours
Protocol: Binding ability to VDR was examined by the following radio receptor assay (RRA) method.
1,25(OH)2D3 and each specimen were serially diluted at from 10^-11 M to 10^-6 M. 20µL of a [26,27-^3H]-1,25-dihydroxyvitamin D3 (^3H-1,25(OH)2D3) solution and 60 µL of 1,25(OH)2D3 or each specimen solution were added in a small test tube, and 0.5 mL of a VDR (chicken small intestine receptor) solution was added and mixed, and then allowed to stand at 4°C for 3 hours. Then, after 0.125 mL of a dextran-active carbon suspension was added and mixed, the mixture was allowed to stand on ice for 30 minutes, ^3H-1,25(OH)2D3 unbound to VDR was removed by centrifugation at 3000 rpm for 15 minutes, and then the quantity of ^3H-1,25 (OH)2D3 bound to VDR was measured using 0.5 mL of the supernatant.
The binding ability to VDR of each specimen was evaluated by calculating and comparing the B/B0 50% value. […] The VDR binding ability was shown in Table 1 as a relative value of each specimen when B/B0 50% value of 1,25(OH)2D3 is taken to be 100.

| SMILES | Binding ability to DBP [1] | Binding ability to VDR [2] |
| --- | --- | --- |
| C=C1CC[C@H](O)C(F)(F)/C1=C/C=C1\CCC[C@]2(C)[C@@H]([C@H](C)CCCC(C)CO)CC[C@@H]12 (stereo partly shown) [Example 5(3), 4,4-Difluoro-26-hydroxyvitamin D3] | 28.106 | 34.067 |
| C=C1/C(=C\C=C2/CCC[C@]3(C)[C@@H]([C@H](C)CCCC(C)CO)CC[C@@H]23)C[C@@H](O)C[C@@H]1O (stereo partly drawn) [Example 2, 1α,26-dihydroxyvitamin D3] | 168.529 | 107.557 |
| CC(CO)CCC[C@@H](C)[C@H]1CC[C@H]2/C(=C/C=C3/C[C@@H](O)C[C@H](O)/C3=C\F)CCC[C@]12C (stereo partly drawn) [Example 4(3), 19-fluoro-1α,26-dihydroxyvitamin D3] | 35.257 | 29.129 |
| C=C1C[C@@H](O)[C@H](O)C/C1=C/C=C1\CCC[C@]2(C)[C@@H]([C@H](C)CCCC(C)(C)O)CC[C@@H]12 [Example 1(1), 2α,25-dihydroxyvitamin D3] | 11433.718 | 32.480 |
| C=C1/C(=C\C=C2/CCC[C@]3(C)[C@@H]([C@H](C)CCCC(C)(C)O)CC[C@@H]23)C(F)(F)[C@@H](O)C[C@@H]1O [Example 6(2), 4,4-difluoro-1α,25-dihydroxyvitamin D3] | 26.684 | 92.716 |
| C[C@H](CCCC(C)(C)O)[C@H]1CC[C@H]2/C(=C/C=C3/C[C@@H](O)C[C@H](O)/C3=C\F)CCC[C@]12C [Example 4(2), 19-fluoro-1α,25-dihydroxyvitamin D3] | 35.792 | 62.386 |
| C=C1CC[C@H](O)C(F)(F)/C1=C/C=C1\CCC[C@]2(C)[C@@H]([C@H](C)CCC(O)C(C)C)CC[C@@H]12 (stereo partly shown) [Example 5(1), 4,4-difluoro-24-hydroxyvitamin D3] | 16.633 | 81.860 |
| CC(C)C(O)CC[C@@H](C)[C@H]1CC[C@H]2/C(=C/C=C3/C[C@@H](O)C[C@H](O)/C3=C\F)CCC[C@]12C (stereo partly drawn) [Example 4(1), 19-fluoro-1α,24-dihydroxyvitamin D3] | 23.665 | 72.878 |

— patent EP1172442A1, “VITAMIN D DERIVATIVES AND PROCESS FOR PRODUCING THE SAME” (MERCIAN CORPORATION, priority 1999, dated 2000)
